From US7251525B2, “Treatment of arrhythmias via inhibition of a multifunctional calcium/calmodulin-dependent protein kinase” (The Board of Trustees of the Leland Stanford Jr. University, priority 1997, dated 2007)

Legend:
[1] = tested on: L-type calcium window current; test: L-type calcium window current with an EAD-containing action potential voltage clamp wave form; format: cell-based, rabbit; settings: dialysis with peptide; data not shown
[2] = tested on: isolated rabbit ventricular myocytes; test: EAD induction in isolated rabbit ventricular myocytes in current clamp with low extracellular potassium; format: cell-based; settings: cells dialyzed with peptide; for EADs induced (cells with EADs/cells): 1.0 mM extracellular potassium
Protocol: Action potentials were induced in isolated rabbit ventricular myocytes studied in current clamp with low (1.0 mM) extracellular potassium to favor EAD induction.
Action potential recording was performed in the following bath solution (mmol/L): NaCl 140.0, Glucose 10.0, HEPES 5.0, KCl 5.4, CaCl2 2.5, MgCl2 1.0; pH was adjusted to 7.4 with 10 N NaOH. The intracellular pipette solution for action potential recording contained (mmol/L): K aspartate 120.0, HEPES 10.0, EGTA 10.0, Na2ATP 5.0, MgCl2 4.0, CaCl2 3.0; pH was adjusted to 7.2 with 1N KOH. Unless otherwise noted, all chemicals were from Sigma.
Cells were stimulated at 0.1 Hz in whole cell configuration in current clamp mode with 0.1 to 1.0 nA pulses of depolarizing current (1.25×threshold) for 2-3 ms at room temperature (20°-23° C.). Action potentials were low pass filtered at 2 KHz and sampled at 2.5 KHz with a 12-bit analog to digital converter (Digidata 1200 B, Axon Instruments). A long action potential waveform was digitized and stored for application as a voltage command using pClamp 6.03.

isolated heart cells = test: Pacing-induced inward current (DAD-linked) in isolated heart cells, action potential voltage clamp; format: cell-based, rabbit; settings: 0.5 Hz; for cells that developed inward currents: peptide 20 μmole/l dialyzed, 32° C.
Protocol: FIG. 7. CaM kinase inhibition suppresses pacing induced inward current. Isolated heart cells were paced (0.5 Hz, T=32° C.) using a prolonged action potential voltage clamp command wave form. (A) A prolonged action potential was digitized and used as a voltage clamp command waveform for current tracings below. Command membrane potential is on the ordinate and time (for panels A-C) is on the abscissa (B) Inward currents developed after completion of the command wave form in 5/6 cells dialyzed with a control peptide (SEQ ID NO: 2, 20 μmole/l) devoid of CaM kinase inhibitory activity. Cell membrane currents are referenced on the ordinate for both panels B and C.
Isolated heart cells (Experimental Methods, Example 6) were stimulated (0.5 Hz) in voltage clamp using a prolonged action potential wave form (FIG. 7A). Rapid pacing favors intracellular calcium overload. Inward currents that develop in response to rapid pacing are a marker for intracellular calcium overload and they are the basis for arrhythmogenic delayed afterdepolarizations (DADs).
Isolated cells were studied with the action potential command wave form using voltage clamp methodology (Experimental Methods, Example 6). Cells were stimulated at 0.5 Hz and 32° C. (heated stage from Warner Instruments) for up to 100 beats. Recording solutions were identical to those for action potential recording except that the calcium buffer EGTA was omitted from the intracellular solution to favor intracellular calcium overload. The presence or absence of the post-repolarization inward current was noted.

CaM kinase [3] = target: T1, CaM kinase (Oryctolagus cuniculus, UniProt O77708); test: Ca2+-independent CaM kinase activity in LV tissue from isolated rabbit hearts; settings: clofilium 7.5 μmole/l; KN-93 pretreatment 0.5 μmol/l
Protocol: FIG. 4. Percent calcium-independent CaM kinase activity in isolated rabbit hearts. Maximal (i.e. Ca^2+/calmodulin-dependent) and Ca^2+-independent CaM kinase activities were assayed from left ventricular (LV) tissue homogenates as described in Example 5, Experimental Methods. All hearts were initially isolated under control conditions. A stabilization period of ≧10 min was used for each isolated heart to ensure the absence of EADs, as indicated by monophasic action potentials (MAPs) recorded by a catheter positioned over the LV epicardium. […]
Left ventricular homogenate was prepared as follows: after removal of the heart, it was placed in nominally Ca^2+ free ice-cold HEPES-buffered Tyrode's solution. […] Protein concentration was measured by the method of Bradford, using BSA as the standard.
(§1) Assay of CaM kinase activity was performed essentially as described by Waldmann et al. with a few modifications. […] Calcium/calmodulin-dependent phosphorylation of the autocamtide 3 substrate was then quantitated as described. Calcium/calmodulin-independent CaM kinase activity was quantitated as described above, but Ca^2+ was omitted from the assay solution. […]

[4] = target: T2, L-type Ca2+ current (ICa) (Oryctolagus cuniculus, UniProt P15381); test: Whole cell voltage clamp of L-type Ca2+ current in single ventricular myocytes; format: cell-based, rabbit; settings: for steady state inhibition of peak ICa: 0.5 μmol/l external application, cells dialyzed with BAPTA
T2 construct: endogenous in cells; host or cells: freshly isolated New Zealand White rabbit ventricular myocytes

protein kinase A (PKA) = settings: cited from earlier work
isolated rabbit hearts = test: Clofilium-induced early afterdepolarizations (EADs) in isolated perfused rabbit hearts; settings: for left ventricular developed pressure (LVDP) following clofilium: clofilium 7.5 μmole/l
Description: FIG. 1. […] Data tracings show (from top to bottom) monophasic action potentials (MAP) and left ventricular (LV) pressure. The horizontal lines to the left of the LV pressure tracings (top to bottom) indicate 100 mm Hg and 0 mm Hg levels and 850 ms for panels A and B. All experiments with isolated hearts consisted of 3 periods. A fourth period (experimental period 4) was only added in hearts with EADs. Experimental periods are labeled 1-4 (top of page for both panels A and B). Experimental period 1 measurements represent control and follow >10 min of stabilization. […] Period 3 measurements follow addition of clofilium (7.5 μmole/l) and are taken at EAD initiation or from the longest action potential duration recorded over 30 min. Multiple EADs are seen as 2 oscillations during repolarization on the MAP tracings in experimental period 3. Secondary elevations in LV pressure coinciding with EADs are also seen in the LV pressure tracing in experimental period 3. Experimental period 4 measurements follow EAD termination by addition of nifedipine (10 μmole/l) (shown above) or Cd^2+ (200-500 μmole/l) (data not shown). The horizontal bars indicate the experimental conditions for both panels A and B. (B) Experimental design for isolated rabbit hearts treated with CaM kinase inhibitor KN-93. Arrangement of data tracings is the same as in FIG. 1A (above). Experimental periods are also the same as in FIG. 1A (above) except the active CaM kinase inhibitor KN-93 (0.5 μmole/l) was added 10 min prior to period 2 measurements. […] (C) Continuous record of EAD termination by nifedipine (10 μM) in a heart paced at a cycle length of 1500 ms. Data tracings show MAP with single EADs (top) and LV pressure (bottom). The horizontal lines to the left of the LV pressure tracings indicate 50 mm Hg and 0 mm Hg pressure levels (top to bottom). EAD termination occurs prior to the first discernible decrease (i.e. >10% below baseline) in LV pressure. The vertical arrow marks the first beat of EAD termination.
New Zealand White rabbits of either gender (2.7-3.2 kg) were treated with a heparin bolus (150 U/kg IV) and killed by pentobarbital (50 mg/kg IV) overdose. Hearts were rapidly excised and placed in ice-cold Tyrode's solution for dissection of extracardiac tissue. (Tyrode's solution was composed of (mmol/l) NaCl (130.0), NaHCO3 (20.0), glucose (5.6), KCl (3.0), CaCl2 (2.0), NaH2PO4 (1.8), MgCl24H2O(0.7).) The aorta was cannulated, and perfused retrograde with Tyrode's solution. The perfusate (200 ml) was recirculated through a warming bath and filling pressure was adjusted to 20 cm of H2O. Recirculation time was ˜1 min, based on the time to decrease in left ventricular (LV) pressure following addition of ICa blockers to the recirculating perfusate. Temperature was monitored using a thermistor probe positioned in the right ventricle (RV) and maintained at 33±1° C. by a closed loop feed back system. The perfusate was vigorously bubbled with 95% O2, 5% CO2 and pH was monitored throughout the experiments and adjusted to 7.4 with LN NaOH or HCl, as appropriate. Both atria were removed and drains were placed in the RV and LV apices. An electrocardiogram (ecg) lead was sutured to the LV apex and the proximal pulmonary artery. Epicardial pacing wires were inserted into the RV free wall. Bradycardia was produced by crushing the AV node with a forceps. Epicardial pacing maintained a minimum cycle length of 1500 ms (heart rate of 40 beats/min). Pacing output was adjusted to twice diastolic threshold. In most experiments LV pressure was continuously monitored with a solid state transducer (Camino Laboratories) placed in a saline filled latex balloon. The balloon was secured with a purse string suture around the left atrial remnant and pressure was adjusted to maximize the LV developed pressure (LVDP) keeping the LV end diastolic pressure <10 mmHg. […]

protein kinase C (PKC) = settings: cited from earlier work
CaM kinase [5] = settings: cited from earlier work
CaM kinase [6] = target: T1, CaM kinase; test: In vitro CaM kinase activity in left ventricular tissue homogenate; format: biochemical, rabbit; settings: LV tissue homogenate; 0-100 μmol/l
Protocol: FIG. 5. Effects of KN-93 and KN-92 on CaM kinase activity in vitro. CaM kinase activity in left ventricular tissue homogenate was assayed as described in Example 5, Experimental Methods. […] The solid line represents a fit to the KN-93 data using the Hill equation.
Left ventricular homogenate was prepared as follows: after removal of the heart, it was placed in nominally Ca^2+ free ice-cold HEPES-buffered Tyrode's solution. One to two grams of the left ventricular free wall was cut away, coarsely minced, and suspended in 5-10 ml of cold homogenization buffer (mmol/l: 20 PIPES, 1 EDTA, 1 EGTA, 2 DTT, 10 sodium pyrophosphate, and 50-100 μg/ml leupeptin) at pH 7.0. Tissue suspension was homogenized at 4° C. using 3-10 sec bursts of a Polytron with 30 sec pauses inbetween bursts. The homogenate was then centrifuged at ˜10,000×g for 20 min at 4° C. using a JA-20 rotor. The supemate was removed and used directly in the assay. Protein concentration was measured by the method of Bradford, using BSA as the standard.
as §1

[7] = pretreatment 0.5 μmol/l, clofilium 7.5 μM

T1 sequence (O77708 2-533): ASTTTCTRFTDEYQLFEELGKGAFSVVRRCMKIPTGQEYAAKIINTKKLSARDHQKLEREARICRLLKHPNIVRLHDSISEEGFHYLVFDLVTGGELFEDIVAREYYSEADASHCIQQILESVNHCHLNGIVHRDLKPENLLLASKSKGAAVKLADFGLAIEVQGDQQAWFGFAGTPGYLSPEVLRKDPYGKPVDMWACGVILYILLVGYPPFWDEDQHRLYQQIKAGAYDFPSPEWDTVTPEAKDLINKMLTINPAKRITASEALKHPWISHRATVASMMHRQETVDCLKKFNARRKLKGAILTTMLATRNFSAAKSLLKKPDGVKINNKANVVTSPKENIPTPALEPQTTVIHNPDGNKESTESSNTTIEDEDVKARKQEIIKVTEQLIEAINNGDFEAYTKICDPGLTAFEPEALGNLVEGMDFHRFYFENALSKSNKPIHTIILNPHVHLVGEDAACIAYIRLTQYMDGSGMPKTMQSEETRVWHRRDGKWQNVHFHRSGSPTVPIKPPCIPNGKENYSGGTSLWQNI
T2 sequence (P15381 whole entry, other chains not shown): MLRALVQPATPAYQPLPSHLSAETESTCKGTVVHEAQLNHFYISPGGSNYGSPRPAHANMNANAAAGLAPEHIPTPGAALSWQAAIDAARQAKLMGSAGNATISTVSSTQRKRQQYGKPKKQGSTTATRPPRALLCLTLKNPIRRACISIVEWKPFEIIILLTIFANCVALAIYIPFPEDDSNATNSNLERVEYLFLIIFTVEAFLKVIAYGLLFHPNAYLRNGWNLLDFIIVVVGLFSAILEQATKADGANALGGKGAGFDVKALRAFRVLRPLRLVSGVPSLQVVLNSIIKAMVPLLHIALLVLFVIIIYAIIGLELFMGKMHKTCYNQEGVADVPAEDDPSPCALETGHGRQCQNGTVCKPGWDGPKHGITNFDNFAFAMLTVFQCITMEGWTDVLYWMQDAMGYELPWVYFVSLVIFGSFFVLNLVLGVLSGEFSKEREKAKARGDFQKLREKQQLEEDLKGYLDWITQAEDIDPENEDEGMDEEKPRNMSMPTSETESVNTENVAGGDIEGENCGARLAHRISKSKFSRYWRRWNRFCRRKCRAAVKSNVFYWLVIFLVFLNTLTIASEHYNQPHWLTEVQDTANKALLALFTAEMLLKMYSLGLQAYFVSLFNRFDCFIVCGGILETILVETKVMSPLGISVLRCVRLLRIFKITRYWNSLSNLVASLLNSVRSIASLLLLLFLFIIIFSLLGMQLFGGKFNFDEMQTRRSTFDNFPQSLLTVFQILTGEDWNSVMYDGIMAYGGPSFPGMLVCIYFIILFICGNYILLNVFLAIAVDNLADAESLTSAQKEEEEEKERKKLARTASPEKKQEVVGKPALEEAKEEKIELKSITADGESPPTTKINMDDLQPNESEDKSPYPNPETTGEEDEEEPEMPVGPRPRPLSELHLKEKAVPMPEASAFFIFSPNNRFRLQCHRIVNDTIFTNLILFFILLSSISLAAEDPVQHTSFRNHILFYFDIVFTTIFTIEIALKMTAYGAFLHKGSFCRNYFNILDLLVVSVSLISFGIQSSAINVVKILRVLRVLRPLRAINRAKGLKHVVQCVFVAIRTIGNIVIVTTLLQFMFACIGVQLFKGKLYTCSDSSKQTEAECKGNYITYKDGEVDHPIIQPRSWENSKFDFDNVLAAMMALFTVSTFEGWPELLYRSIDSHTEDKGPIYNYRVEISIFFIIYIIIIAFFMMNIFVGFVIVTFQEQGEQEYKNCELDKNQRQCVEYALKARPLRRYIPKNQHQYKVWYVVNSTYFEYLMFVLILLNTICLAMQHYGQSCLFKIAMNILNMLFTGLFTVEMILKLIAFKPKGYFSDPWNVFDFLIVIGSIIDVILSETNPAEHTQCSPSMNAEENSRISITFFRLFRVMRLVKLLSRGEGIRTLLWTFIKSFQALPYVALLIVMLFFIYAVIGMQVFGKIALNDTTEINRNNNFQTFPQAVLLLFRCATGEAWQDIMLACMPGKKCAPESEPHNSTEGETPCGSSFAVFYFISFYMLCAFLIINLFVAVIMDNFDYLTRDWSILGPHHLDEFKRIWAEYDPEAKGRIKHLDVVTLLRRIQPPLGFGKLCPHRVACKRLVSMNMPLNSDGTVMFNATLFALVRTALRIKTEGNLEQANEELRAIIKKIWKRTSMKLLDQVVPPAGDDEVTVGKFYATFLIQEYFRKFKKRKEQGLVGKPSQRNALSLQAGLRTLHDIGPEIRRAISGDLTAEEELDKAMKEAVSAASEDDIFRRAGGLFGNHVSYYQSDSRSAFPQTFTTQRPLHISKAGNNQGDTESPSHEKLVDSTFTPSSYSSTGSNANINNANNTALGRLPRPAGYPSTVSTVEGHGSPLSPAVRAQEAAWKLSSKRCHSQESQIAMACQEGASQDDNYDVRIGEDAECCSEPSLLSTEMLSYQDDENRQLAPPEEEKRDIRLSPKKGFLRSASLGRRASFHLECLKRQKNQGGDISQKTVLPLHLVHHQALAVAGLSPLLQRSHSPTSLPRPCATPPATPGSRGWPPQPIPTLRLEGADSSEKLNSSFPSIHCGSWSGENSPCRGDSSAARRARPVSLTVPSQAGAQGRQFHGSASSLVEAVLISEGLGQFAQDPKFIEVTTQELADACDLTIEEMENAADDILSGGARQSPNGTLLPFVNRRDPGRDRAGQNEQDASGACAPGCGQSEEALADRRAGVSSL
T2 sequence (P13806 27-960 partner limits assumed, other chains not shown): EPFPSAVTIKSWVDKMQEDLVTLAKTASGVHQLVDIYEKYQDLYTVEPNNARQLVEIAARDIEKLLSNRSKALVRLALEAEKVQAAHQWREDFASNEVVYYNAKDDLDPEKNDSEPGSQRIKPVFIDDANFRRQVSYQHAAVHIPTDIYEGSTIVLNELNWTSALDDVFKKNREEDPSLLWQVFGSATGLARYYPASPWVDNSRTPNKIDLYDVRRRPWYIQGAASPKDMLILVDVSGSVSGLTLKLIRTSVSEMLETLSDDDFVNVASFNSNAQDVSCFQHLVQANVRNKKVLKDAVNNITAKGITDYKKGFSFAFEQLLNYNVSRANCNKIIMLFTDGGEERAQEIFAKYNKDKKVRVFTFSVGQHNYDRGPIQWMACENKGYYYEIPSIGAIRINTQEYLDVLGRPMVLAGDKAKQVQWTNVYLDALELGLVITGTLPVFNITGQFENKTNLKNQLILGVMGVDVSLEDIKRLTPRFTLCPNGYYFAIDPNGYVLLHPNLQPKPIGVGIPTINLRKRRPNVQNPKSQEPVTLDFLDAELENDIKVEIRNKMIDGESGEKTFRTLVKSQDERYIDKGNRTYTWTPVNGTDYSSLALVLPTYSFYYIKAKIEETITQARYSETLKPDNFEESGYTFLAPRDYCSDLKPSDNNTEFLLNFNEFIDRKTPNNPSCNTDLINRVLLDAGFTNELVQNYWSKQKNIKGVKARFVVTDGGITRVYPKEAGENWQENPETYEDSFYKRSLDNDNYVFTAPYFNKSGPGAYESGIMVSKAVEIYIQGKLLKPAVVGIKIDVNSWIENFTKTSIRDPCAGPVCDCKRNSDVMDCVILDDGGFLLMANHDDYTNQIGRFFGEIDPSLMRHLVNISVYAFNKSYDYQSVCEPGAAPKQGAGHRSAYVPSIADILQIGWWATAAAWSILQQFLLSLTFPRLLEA
T2 sequence (P13806 961-1106 partner limits assumed, other chains not shown): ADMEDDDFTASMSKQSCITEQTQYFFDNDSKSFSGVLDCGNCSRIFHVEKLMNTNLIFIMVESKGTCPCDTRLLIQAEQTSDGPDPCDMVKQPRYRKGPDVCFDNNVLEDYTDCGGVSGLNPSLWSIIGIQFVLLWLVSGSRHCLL

Molecule | effect on L-type calcium window current [1] | kind of EADs seen [2] | EADs induced (cells with EADs/cells) [2] | cells that developed inward currents (isolated heart cells) | Ca2+-independent CaM kinase activity compared to control (CaM kinase [3]) | apparent voltage dependence of ICa activation [4] | steady state inhibition of peak ICa [4] | effects on protein kinase A (PKA) (protein kinase A (PKA)) | EADs in response to clofilium (hearts with EADs/hearts) (isolated rabbit hearts; [7]) | multiple EADs (hearts with multiple EADs/hearts) (isolated rabbit hearts; [7]) | left ventricular developed pressure (LVDP) following clofilium (isolated rabbit hearts; pretreatment 0.5 μmol/l) | effects on protein kinase C (PKC) (protein kinase C (PKC)) | other results
KKALHAQERVDCL [SEQ ID NO: 2] | no significant effect | complex and repetitive | 11/15 | 5/6 |  |  |  |  |  |  |  |  | 
Ryanodine |  |  |  |  |  |  |  |  |  |  |  |  | cells in which development of pacing induced inward currents was prevented (isolated heart cells; 10 μmole/l): 2/2
COc1ccc(S(=O)(=O)N(CCO)c2ccccc2CN(C)CC=Cc2ccc(Cl)cc2)cc1 [KN-93, 2-[N-(2-hydroxyethyl)-N-(4-methoxy-benzenesulfonyl)]-amino-N-(4-chlorocinnamyl)-N-methylbenzylamine] |  |  |  |  | No significant increase | Neither KN-92 or KN-93 shifted | 36.2±4.3% | neither KN-93 nor KN-92 have appreciable effects | 4/10 | 1/10 | completely prevented the increase in LVDP | neither KN-93 nor KN-92 have appreciable effects | peak steady state ICa inhibition relative to KN-92 ([4]; 1.0 μmol/l): more effective ICa inhibitor; MAP duration prolongation by clofilium (isolated rabbit hearts; pretreatment 0.5 μmol/l): without reducing MAP duration prolongation; Ki (CaM kinase [5]; read-out: reported Ki, competitive inhibition of calmodulin binding to CaM kinase): 0.37 µM
KKALHRQEAVDCL [SEQ ID NO: 1] | an increase in the current was prevented | only single EADs | 4/15 | 0/5 |  |  |  |  |  |  |  |  | IC50 (protein kinase A (PKA)): ≥ 500 µM; IC50 (protein kinase C (PKC)): ≥ 500 µM
COc1ccc(S(=O)(=O)Nc2ccccc2CN(C)CC=Cc2ccc(Cl)cc2)cc1 [KN-92, 2-N-(4-methoxybenzenesulfonyl)-amino-N-(4-chlorocinnamyl)N-methylbenzylamine] |  |  |  |  |  | Neither KN-92 or KN-93 shifted | 36.2±1.9% | neither KN-93 nor KN-92 have appreciable effects | 10/11 | 7/11 | increased significantly | neither KN-93 nor KN-92 have appreciable effects | inhibition of CaM kinase activity (CaM kinase [6]): did not cause appreciable inhibition; CaM kinase inhibitory activity (CaM kinase [5]; congener used as experimental control): without CaM kinase inhibitory activity
CCCCCCC[N+](CC)(CC)CCCCc1ccc(Cl)cc1 [clofilium] |  |  |  |  | increased significantly |  |  |  |  |  |  |  | EAD induction by clofilium in hearts without any pretreatment (isolated rabbit hearts; clofilium 7.5 μM, no pretreatment): 8/8
